Measurements reported in patent US20240317725A1, “LPA1 SMALL MOLECULE ANTAGONIST” (TUOJIE BIOTECH (SHANGHAI) CO., LTD., priority 2021, published 2024).

Target: T1, human lysophosphatidic acid receptor 1 (LPAR1) (Homo sapiens, UniProt Q92633)
T1 construct: host or cells: CHO-K1 (Chinese hamster ovary K1) cells, CHO-K1/LPA1R, kept under hygromycin B selection
Test: FLIPR test of antagonist properties: inhibition of LPA-induced intracellular calcium elevation in CHO-K1 cells expressing hLPAR1
Assay type: cell-based
Settings: FLIPR calcium assay, CHO-K1/LPA1R cells, LPA at EC80
Experimental: The antagonist properties of the compounds of the present disclosure were tested using the FLIPR (fluorometric imaging plate reader) method. The compounds are inhibitors of intracellular calcium elevation induced by activation of hLPARI (human lysophosphatidic acid receptor 1) expressed in CHO-K1 cells (Chinese hamster ovary K1 cells, HDB).
2.1. Reaction buffer: HBSS+20 mM HEPES+0.1% fatty acid-free BSA+0.001% F-127
2.2. 50×Red dye: (a red dye for blocking background signals in cells) prepared by: weighing out 4 g of tartrazine and 10.2 g of acid red and dissolving them in 100 mL of H2O.
2.3. Fluo-8 staining mixture: 4 mL of reaction buffer, 32 μL of fluo-8, 320 μL of 50×Red dye, and 40 μL of probenecid.
3.1. LPA: dissolved in DPBS (containing 0.1% fatty acid-free BSA) to prepare a 0.8 μM stock solution, and the solution was aliquoted and stored at −20° C.
3.2. Test compound preparation: The test compounds were dissolved in DMSO to prepare 10 mM stock solutions, and the solutions were stored at −20° C. In the experiment, the compounds were first gradient-diluted with DMSO (initial concentration of 50 μM, 3-fold dilution, 10 points) to prepare 200×compound solutions. The compound solutions were then diluted with reaction buffer to give 5×compound solutions, and the solutions were transferred to a 384-well plate (Cat. No. 6008590) using Bravo.
4.1. CHO-K1/LPA1R cells were cultured in a cell culture medium (F-12+10% FBS+400 μg/mL hygromycin B).
4.2. When the cell confluence reached 80%, the cells were digested with 0.25% pancreatin.
4.3. When the cells became round, the digestion was stopped with the medium F-12 (10% FBS), and the cells were counted. Then the cell culture was diluted with F-12 (10% FBS) to give a cell suspension with a density of 6.7×10^5 cells/mL.
4.4. The cell suspension was added to a 384-well black cell culture plate at 30 µL/well using a Multidrop auto-dispenser, and the plate was incubated in a 37° C., 5% CO2 incubator for 20-24 h. The medium was changed to a serum-free F-12 medium, and the cells were starved for 24 h.
4.5. Dose experiment for testing LPA. Gradient dilutions of 6×LPA solution (initial concentration of 60 μM, 3-fold dilution, 10 points) were prepared with reaction buffer. The medium in the 384-well black cell culture plate was discarded and changed to reaction buffer. 10 μL of 5% DMSO reaction buffer was added, and 10 μL of Fluo-8 staining mixture was then added. The plate was incubated in the dark in a 37° C., 5% CO2 incubator for 0.5 h.
4.6. FLIPR was correspondingly programmed, the 6×LPA gradient solutions were added, and readings were taken. Two-minute data were collected.
4.7. A reaction curve was obtained from the numerical values of LPA, and the concentration of LPA at EC80 was calculated. A 6×LPA solution was prepared in a 384-well plate (Cat. No. 6008590), and HPE and ZPE were added to corresponding wells. HPE (one hundred per cent effect) was 60 μM LPA, and ZPE (zero per cent effect) was reaction buffer.
4.8. Testing of compounds. The medium in the 384-well black cell culture plate was discarded and changed to reaction buffer. 10 μL of 5×compound solution was transferred using Bravo, and then 10 μL of Fluo-8 staining mixture was added immediately. The plate was incubated in the dark in a 37° C., 5% CO2 incubator for 0.5 h.
4.9. FLIPR was correspondingly programmed, the 6×LPA solution was added, and readings were taken. Two-minute data were collected.
4.10. Finally, the output fluorescence counts were analyzed, and IC50 was calculated for the compounds.

T1 sequence (Q92633 whole entry): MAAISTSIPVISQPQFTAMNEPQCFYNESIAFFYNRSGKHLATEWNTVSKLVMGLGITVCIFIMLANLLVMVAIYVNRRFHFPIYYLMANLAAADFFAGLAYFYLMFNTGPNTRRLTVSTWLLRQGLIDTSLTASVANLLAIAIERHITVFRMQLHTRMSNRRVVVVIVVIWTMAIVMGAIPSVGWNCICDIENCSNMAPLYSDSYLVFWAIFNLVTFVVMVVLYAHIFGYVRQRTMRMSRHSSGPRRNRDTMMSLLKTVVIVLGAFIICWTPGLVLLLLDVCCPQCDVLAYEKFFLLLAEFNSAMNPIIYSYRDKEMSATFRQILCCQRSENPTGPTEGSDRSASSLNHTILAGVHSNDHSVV

Compound | IC50
Cc1nc(-c2nnn(C)c2COc2nccc(C(F)(F)F)n2)ccc1OC1CC2CCC(C(=O)O)C2C1 (single isomer, unassigned) [Compound 1-P2, 5-((2-Methyl-6-(1-methyl-5-(((4-(trifluoromethyl)pyrimidin-2-yl)oxy)methyl)-1H-1,2,3-triazol-4-yl)pyridin-3-yl)oxy)octahydropentalene-1-carboxylic acid] | 659 nM
Cc1nc(-c2nnn(C)c2COc2noc(C3CC3)n2)ccc1OC1CC2CCC(C(=O)O)C2C1 (single isomer, unassigned) [Compound 2-P2, 5-((6-(5-(((5-Cyclopropyl-1,2,4-oxadiazol-3-yl)oxy)methyl)-1-methyl-1H-1,2,3-triazol-4-yl)-2-methylpyridin-3-yl)oxy)octahydropentalene-1-carboxylic acid] | 2690 nM
COCc1ccnc(OCc2c(-c3ccc(OC4CC5CCC(C(=O)O)C5C4)c(C)n3)nnn2C)n1 (single isomer, unassigned) [Compound 3-P2, 5-((6-(5-(((4-(Methoxymethyl)pyrimidin-2-yl)oxy)methyl)-1-methyl-1H-1,2,3-triazol-4-yl)-2-methylpyridin-3-yl)oxy)octahydropentalene-1-carboxylic acid] | 1380 nM
CCc1cc(OCc2c(-c3ccc(OC4CC5CCC(C(=O)O)C5C4)c(C)n3)nnn2C)ncn1 (single isomer, unassigned) [Compound 4-P1, 5-((6-(5-(((6-Ethylpyrimidin-4-yl)oxy)methyl)-1-methyl-1H-1,2,3-triazol-4-yl)-2-methylpyridin-3-yl)oxy)octahydropentalene-1-carboxylic acid] | 746 nM
COCc1ccnc(OCc2c(-c3ccc(OC4CC5CCC(F)(C(=O)O)C5C4)c(C)n3)nnn2C)n1 (single isomer, unassigned) [Compound 5-P2, 1-Fluoro-5-((6-(5-(((4-(methoxymethyl)pyrimidin-2-yl)oxy)methyl)-1-methyl-1H-1,2,3-triazol-4-yl)-2-methylpyridin-3-yl)oxy)octahydropentalene-1-carboxylic acid] | 917 nM
Cc1nc(-c2nnn(C)c2COc2nccc(O[C@H]3CCOC3)n2)ccc1OC1CC2CCC(C(=O)O)C2C1 (single isomer, unassigned) [Compound 9-P2] | 853 nM
Cc1nc(-c2nnn(C)c2COc2nccc(C(C)(C)O)n2)ccc1OC1CC2CCC(C(=O)O)C2C1 (single isomer, unassigned) [Compound 10-P2, 5-((6-(5-(((4-(2-Hydroxypropan-2-yl)pyrimidin-2-yl)oxy)methyl)-1-methyl-1H-1,2,3-triazol-4-yl)-2-methylpyridin-3-yl)oxy)octahydropentalene-1-carboxylic acid] | 1860 nM
COc1ccnc(OCc2c(-c3ccc(OC4CC5CCC(C(=O)O)C5C4)c(C)n3)nnn2C)n1 (single isomer, unassigned) [Compound 11-P1, 5-((6-(5-(((4-Methoxypyrimidin-2-yl)oxy)methyl)-1-methyl-1H-1,2,3-triazol-4-yl)-2-methylpyridin-3-yl)oxy)octahydropentalene-1-carboxylic acid] | > 10000 nM
CCOCc1ccnc(OCc2c(-c3ccc(OC4CC5CCC(C(=O)O)C5C4)c(C)n3)nnn2C)n1 (single isomer, unassigned) [Compound 13-P1, 5-((6-(5-(((4-(Ethoxymethyl)pyrimidin-2-yl)oxy)methyl)-1-methyl-1H-1,2,3-triazol-4-yl)-2-methylpyridin-3-yl)oxy)octahydropentalene-1-carboxylic acid] | 1090 nM

Compounds with a lower IC50, results first:

IC50 | Compound
13.3 nM | Cc1nc(-c2nnn(C)c2COc2nccc(C(F)(F)F)n2)ccc1OC1CC2CCC(C(=O)O)C2C1 (single isomer, unassigned) [Compound 1-P1, 5-((2-Methyl-6-(1-methyl-5-(((4-(trifluoromethyl)pyrimidin-2-yl)oxy)methyl)-1H-1,2,3-triazol-4-yl)pyridin-3-yl)oxy)octahydropentalene-1-carboxylic acid]
26 nM | Cc1nc(-c2nnn(C)c2COc2noc(C3CC3)n2)ccc1OC1CC2CCC(C(=O)O)C2C1 (single isomer, unassigned) [Compound 2-P1, 5-((6-(5-(((5-Cyclopropyl-1,2,4-oxadiazol-3-yl)oxy)methyl)-1-methyl-1H-1,2,3-triazol-4-yl)-2-methylpyridin-3-yl)oxy)octahydropentalene-1-carboxylic acid]
8.7 nM | COCc1ccnc(OCc2c(-c3ccc(OC4CC5CCC(C(=O)O)C5C4)c(C)n3)nnn2C)n1 (single isomer, unassigned) [Compound 3-P1, 5-((6-(5-(((4-(Methoxymethyl)pyrimidin-2-yl)oxy)methyl)-1-methyl-1H-1,2,3-triazol-4-yl)-2-methylpyridin-3-yl)oxy)octahydropentalene-1-carboxylic acid]
35.8 nM | CCc1cc(OCc2c(-c3ccc(OC4CC5CCC(C(=O)O)C5C4)c(C)n3)nnn2C)ncn1 (single isomer, unassigned) [Compound 4-P2, 5-((6-(5-(((6-Ethylpyrimidin-4-yl)oxy)methyl)-1-methyl-1H-1,2,3-triazol-4-yl)-2-methylpyridin-3-yl)oxy)octahydropentalene-1-carboxylic acid]
15.6 nM | COCc1ccnc(OCc2c(-c3ccc(OC4CC5CCC(F)(C(=O)O)C5C4)c(C)n3)nnn2C)n1 (single isomer, unassigned) [Compound 5-P1, 1-Fluoro-5-((6-(5-(((4-(methoxymethyl)pyrimidin-2-yl)oxy)methyl)-1-methyl-1H-1,2,3-triazol-4-yl)-2-methylpyridin-3-yl)oxy)octahydropentalene-1-carboxylic acid]
28 nM | Cc1nc(-c2nnn(C)c2COc2nccc(O[C@@H]3CCOC3)n2)ccc1OC1CC2CCC(C(=O)O)C2C1 (single isomer, unassigned) [Compound 8-P1]
502 nM | Cc1nc(-c2nnn(C)c2COc2nccc(O[C@@H]3CCOC3)n2)ccc1OC1CC2CCC(C(=O)O)C2C1 (single isomer, unassigned) [Compound 8-P2]
33.4 nM | Cc1nc(-c2nnn(C)c2COc2nccc(O[C@H]3CCOC3)n2)ccc1OC1CC2CCC(C(=O)O)C2C1 (single isomer, unassigned) [Compound 9-P1]
88.7 nM | Cc1nc(-c2nnn(C)c2COc2nccc(C(C)(C)O)n2)ccc1OC1CC2CCC(C(=O)O)C2C1 (single isomer, unassigned) [Compound 10-P1, 5-((6-(5-(((4-(2-Hydroxypropan-2-yl)pyrimidin-2-yl)oxy)methyl)-1-methyl-1H-1,2,3-triazol-4-yl)-2-methylpyridin-3-yl)oxy)octahydropentalene-1-carboxylic acid]
50.6 nM | COc1ccnc(OCc2c(-c3ccc(OC4CC5CCC(C(=O)O)C5C4)c(C)n3)nnn2C)n1 (single isomer, unassigned) [Compound 11-P2, 5-((6-(5-(((4-Methoxypyrimidin-2-yl)oxy)methyl)-1-methyl-1H-1,2,3-triazol-4-yl)-2-methylpyridin-3-yl)oxy)octahydropentalene-1-carboxylic acid]
27.9 nM | CCOCc1ccnc(OCc2c(-c3ccc(OC4CC5CCC(C(=O)O)C5C4)c(C)n3)nnn2C)n1 (single isomer, unassigned) [Compound 13-P2, 5-((6-(5-(((4-(Ethoxymethyl)pyrimidin-2-yl)oxy)methyl)-1-methyl-1H-1,2,3-triazol-4-yl)-2-methylpyridin-3-yl)oxy)octahydropentalene-1-carboxylic acid]
